Measured values taken from paper PMC3183052, “Immunoprotectivity of HLA-A2 CTL Peptides Derived from Respiratory Syncytial Virus Fusion Protein in HLA-A2 Transgenic Mouse” (PLoS ONE, 2011).
Entries after “also recorded” stand apart in the source; their conditions may differ.

Assays:
[1] = tested on: RSV-B1; assay: Lung viral load after live RSV challenge (real-time RT-PCR of RSV N gene); type: in vivo, HLA-A*0201 transgenic C57BL/6 mice; settings: two s.c. doses of 50 µg peptide in IFA, challenge i.n. 1×10^7 pfu live RSV-B1, day 4 post-infection; 10 mice per group; vehicle mean = 0.95
Procedure: (§1) To screen the immunodominance of epitopic peptide in the induction of RSV-F specific Th1/Th2 expression, HLA-A*0201 transgenic C57BL/6 mice were anesthetized with isoflurane and immunized with 1×10^7 pfu/50 µL of rAd-F0 or rAd-LacZ or 1×10^4 live RSV B1 via the intranasal (i.n.) route. Twenty days later, the mice were given booster immunization i.n. with the same dose. After 10 days of boost, mice were sacrificed and splenocytes were isolated for the cytokine ELISPOT assay. […] Mice body weight was monitored daily.
(§2) Lung RNA (5 µg) was mixed with 10 nmole random primers and 2 units of […] reverse transcriptase (Invitrogen) and incubated at 94°C for 10 minutes, 37°C for 30 minutes, and then at 4°C. The resulting cDNA was subjected to quantitative PCR analysis (The LightCycler® 480 Real-Time PCR system) with RSV N specific primer pairs, forward: 5′-[…]-3′ and reverse: 5′-[…]-3′. Expression of mouse GAPDH gene in the tested samples was detected as internal control by using specific primer pairs, forward: 5′-[…]-3′ and reverse: 5′-[…]-3′. The number of cycles (Ct) required for the amplification of the N gene and GAPDH was calculated. The relative expression of the N gene was calculated as followed: the individual Ct (RSV N) obtained from peptide- or vehicle-immunized lung was normalized by the respective Ct (GAPDH), and then [drawing 3] was divided by the mean of [drawing 4] . […]

[2] = tested on: IL-13; assay: Lung IL-13 expression by real-time RT-PCR after RSV challenge; type: in vivo, mouse; settings: peptide in IFA s.c. twice, day 4 post challenge, normalized to GAPDH, six mice per group
Procedure: as §1, §2

[3] = tested on: pulmonary CD8+ T lymphocytes; assay: Number of CD8+ T cells in the lungs by flow cytometry after RSV challenge; type: in vivo, mouse; settings: day 4 post RSV infection; flow cytometry of lung homogenate
Procedure: Whole lungs were perfused with 5 mL 1× PBS before excision. The isolated lung tissues were incubated with 1 µg/mL collagenase for 30 min before homogenizing with the iron mesh. The homogenate was centrifuged at 1,000 rpm for 10 min at 4°C to sediment the pulmonary cells. The cells were washed with 1× PBS and then resuspended in 1× PBS for further analysis by real-time RT-PCR and flow cytometry. For pulmonary IFN-γ detection, 5×10^6/mL cells were cultured with 10 U/mL recombinant IL-2 for 2 days and the supernatants were collected for ELISA.
Figure 5 Induction of pulmonary IFN-γ and CTL activity in peptide immunized transgenic mice challenged with RSV. At day 4 post RSV infection, lung homogenates were prepared and the following were measured. (A) IFN-γ expression by ELISA, and (B) the number of CD8^+ T cells in the lungs by flow cytometry using PE-cy5-labeled anti-CD8 antibody. (C). Enumeration of CTL activity in the lungs of mice immunized with CD8 peptide epitopes and challenged with RSV. […] The cell mixtures were labeled with 7-AAD and analyzed by flow cytometry. Results are expressed as mean percentage of 7-AAD/CFSE positive cells normalized with un-pulsed DCs. […]

Q: “YMLTNSELL [peptide 14, HLA-A*0201-restricted 9-mer synthetic peptide from F protein of RSV-B1 strain]” was tested. Which “expression of RSV N gene in the lungs (relative, normalized to GAPDH), mean” value [1] did it give?
A: no significant reduction; also recorded: reduced lung viral load only marginally

Q: And the “lung IL-13 expression vs vehicle” value [2]?
A: normal expression

Q: And the “pulmonary CD8+ T cell numbers vs vehicle immunization” value [3]?
A: lower
